Measured values: US8337835B2, “Use of an endogenous ligand for peroxisome proliferator activated receptor alpha to treat liver disorders” (priority 2009, dated 2012)

Test system: PPARα target gene (ACO and CPT-1) expression
Test: PPARα target gene (ACO and CPT-1) expression by quantitative RT-PCR in Hepa 1-6 cells
Assay type: cell-based
Settings: Hepa 1-6 mouse hepatoma cells, 24 h, serum-free DMEM
Description: RT-PCR gene expression analysis and binding assays were employed to address this objective. Wy14,643, 16:0/18:1-GPC, and 18:1/16:0-GPC on PPARα target gene (ACO and CPT-1) expression was measured by quantitative RT-PCR in Hepa 1-6 cells treated for 24 h as in FIG. 6A. Results are mean±SEM of 9 separate experiments. *, P<0.05 compared to control (Ctrl, 80% PBS/20% DMSO).
The C57BL/6 mouse hepatoma cell line Hepa 1-6 (ATCC, CRL-1830) was expanded in DMEM with 10% fetal bovine serum. For experiments, cells were cultured to 50-60% confluence, washed twice with PBS, and the medium was changed to serum-free DMEM supplemented with the various types and concentrations of phosphatidylcholine (sonicated to homogeneity in PBS/1% ethanol/4% fatty acid-free BSA), Wy14,643 (dissolved in 80% PBS/20% DMSO), or vehicle-only solutions. 24 h later, cells were washed, RNA prepared, and ACO and CPT-1 expression levels were determined by quantitative RT-PCR (see FIG. 6). For siRNA experiments, 50-60% confluent cells were treated with siRNAs or their scrambled controls (all diluted in PBS) for 72 h. Following the 72 h siRNA treatment, another set of cells received 16:0/18:1-GPC (using a concentration based on dose-response experiments) for an additional 24 h. Stealth™ siRNA oligonucleotides were used to inhibit the gene expression of mouse ChPT1 ([…]) (SEQ ID NO: 1) and CEPT1 ([…]) (SEQ ID NO: 2) were from Invitrogen (Carlsbad, Calif.).
Total RNA was extracted from Hepa 1-6 cells and liver using Trizol (Invitrogen) and treated with DNase I (RNase-free, Roche Molecular Biochemicals). Reverse transcription to cDNA and real-time quantitative PCR were performed using previously published procedures and primer-probe sequences for ACO and CPT-1 (Chakravarthy et al., 2005). […] Relative mRNA levels were calculated using both the comparative CT and standard curve methods normalized to ribosomal protein L32, an invariant internal control. […]

CCCCCCCC/C=C\CCCCCCCC(=O)O[C@H](COC(=O)CCCCCCCCCCCCCCC)COP(=O)([O-])OCC[N+](C)(C)C [16:0/18:1-GPC, 1-palmitoyl-2-oleoyl-sn-glycerol-3-phosphocholine]
expression of PPARα-dependent genes ACO and CPT-I: induces PPARα-dependent gene expression | expression of PPARα-dependent genes ACO and CPT-I (listed as 1-palmitoyl-2-oleoyl-sn-glycerol-3-phosphocholine): increased expression of both ACO and CPT-I to a similar degree as equimolar amounts of the known PPARα activator Wy14,643
